The values below come from ChEMBL document CHEMBL1201862, “PubChem BioAssay data set” (2004).

Some targets named below: Cytochrome P450 2D6 (Homo sapiens, UniProt P10635); Cytochrome P450 2C9 (Homo sapiens, UniProt P11712); Cytochrome P450 3A4 (Homo sapiens, UniProt P08684).
The target of test [1] is T1, Histone-lysine N-methyltransferase NSD2 (Homo sapiens, UniProt O96028).
T1 sequence (O96028 whole entry): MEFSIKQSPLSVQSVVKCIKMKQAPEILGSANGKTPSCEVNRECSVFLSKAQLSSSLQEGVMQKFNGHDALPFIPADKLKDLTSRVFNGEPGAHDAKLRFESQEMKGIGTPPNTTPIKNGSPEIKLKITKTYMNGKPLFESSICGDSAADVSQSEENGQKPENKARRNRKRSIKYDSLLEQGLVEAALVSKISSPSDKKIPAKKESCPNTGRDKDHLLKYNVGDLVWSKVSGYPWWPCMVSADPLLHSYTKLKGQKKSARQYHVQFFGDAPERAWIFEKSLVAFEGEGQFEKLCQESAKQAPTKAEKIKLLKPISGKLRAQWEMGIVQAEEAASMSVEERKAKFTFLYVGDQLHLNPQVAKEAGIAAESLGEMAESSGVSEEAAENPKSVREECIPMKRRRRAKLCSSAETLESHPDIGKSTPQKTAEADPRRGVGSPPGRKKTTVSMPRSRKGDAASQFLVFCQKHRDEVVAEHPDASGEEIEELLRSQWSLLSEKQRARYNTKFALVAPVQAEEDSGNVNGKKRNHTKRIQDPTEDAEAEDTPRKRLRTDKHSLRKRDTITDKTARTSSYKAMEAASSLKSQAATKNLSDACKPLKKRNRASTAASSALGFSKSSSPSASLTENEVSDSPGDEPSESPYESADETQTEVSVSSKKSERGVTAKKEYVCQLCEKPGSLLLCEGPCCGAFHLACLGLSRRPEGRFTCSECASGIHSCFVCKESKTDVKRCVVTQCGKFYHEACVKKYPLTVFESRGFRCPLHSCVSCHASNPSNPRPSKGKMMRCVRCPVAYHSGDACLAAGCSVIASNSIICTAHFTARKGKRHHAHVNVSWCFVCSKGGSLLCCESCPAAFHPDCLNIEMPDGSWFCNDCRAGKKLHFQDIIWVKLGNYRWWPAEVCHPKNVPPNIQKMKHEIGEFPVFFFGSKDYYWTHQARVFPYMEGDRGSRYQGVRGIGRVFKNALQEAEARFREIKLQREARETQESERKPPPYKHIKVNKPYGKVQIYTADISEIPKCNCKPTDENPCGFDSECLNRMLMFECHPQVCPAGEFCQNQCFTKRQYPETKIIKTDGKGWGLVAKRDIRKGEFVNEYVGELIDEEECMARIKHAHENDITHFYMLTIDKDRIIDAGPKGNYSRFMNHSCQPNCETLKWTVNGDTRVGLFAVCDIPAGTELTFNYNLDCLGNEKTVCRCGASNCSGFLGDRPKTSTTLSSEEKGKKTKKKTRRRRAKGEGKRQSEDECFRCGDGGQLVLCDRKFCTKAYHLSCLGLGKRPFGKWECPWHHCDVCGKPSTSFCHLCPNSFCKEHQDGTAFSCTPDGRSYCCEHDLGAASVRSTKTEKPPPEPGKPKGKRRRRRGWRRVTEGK
Type of test: biochemical.

In test [2] the target is Luciferin 4-monooxygenase (Photinus pyralis, UniProt P08659). Put plainly: firefly luciferase enzyme inhibitors, dose response, biochemical, luminescence (AID 1891).
Test [3] in a line: Luminescence Cell-Based Dose Confirmation HTS to Identify Inhibitors of Platelet Dense Granule Release. [Related pubchem assays: 1663 (Primary HTS), 1678 (Summary of Project)]. Format: functional.
The target in another test is Cytochrome P450 2C19 (Homo sapiens, UniProt P33261). The experiment in a line: Cytochrome panel assay with activity outcomes. Panel member name: p450-cyp2c19 Compounds with AC50 equal or less than 10 uM are considered active. Type of test: functional. As to conditions: read-out: AC50.
A further test has as its target T2, Cytochrome P450 1A2 (Homo sapiens, UniProt P05177).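 Further: PubChem cytochrome P450 panel assay, CYP1A2 panel member.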
T2 sequence (P05177 whole entry): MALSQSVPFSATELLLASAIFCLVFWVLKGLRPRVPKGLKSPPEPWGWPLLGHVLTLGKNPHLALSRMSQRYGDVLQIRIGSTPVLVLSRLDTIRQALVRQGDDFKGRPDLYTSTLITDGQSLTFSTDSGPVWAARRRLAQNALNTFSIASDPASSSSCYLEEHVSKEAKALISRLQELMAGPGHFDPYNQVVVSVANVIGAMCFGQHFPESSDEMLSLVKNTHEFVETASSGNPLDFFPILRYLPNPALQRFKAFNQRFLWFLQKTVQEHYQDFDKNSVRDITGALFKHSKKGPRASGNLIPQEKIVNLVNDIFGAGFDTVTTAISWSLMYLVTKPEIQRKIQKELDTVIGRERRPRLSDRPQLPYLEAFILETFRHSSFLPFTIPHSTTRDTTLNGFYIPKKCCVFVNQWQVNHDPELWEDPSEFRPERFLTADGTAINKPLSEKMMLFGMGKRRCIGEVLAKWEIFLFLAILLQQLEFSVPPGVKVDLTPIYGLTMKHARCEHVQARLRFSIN

Active and inactive are the calls of the source. Some results are limits rather than exact numbers.

Sequence of Cytochrome P450 2D6 (P10635 whole entry): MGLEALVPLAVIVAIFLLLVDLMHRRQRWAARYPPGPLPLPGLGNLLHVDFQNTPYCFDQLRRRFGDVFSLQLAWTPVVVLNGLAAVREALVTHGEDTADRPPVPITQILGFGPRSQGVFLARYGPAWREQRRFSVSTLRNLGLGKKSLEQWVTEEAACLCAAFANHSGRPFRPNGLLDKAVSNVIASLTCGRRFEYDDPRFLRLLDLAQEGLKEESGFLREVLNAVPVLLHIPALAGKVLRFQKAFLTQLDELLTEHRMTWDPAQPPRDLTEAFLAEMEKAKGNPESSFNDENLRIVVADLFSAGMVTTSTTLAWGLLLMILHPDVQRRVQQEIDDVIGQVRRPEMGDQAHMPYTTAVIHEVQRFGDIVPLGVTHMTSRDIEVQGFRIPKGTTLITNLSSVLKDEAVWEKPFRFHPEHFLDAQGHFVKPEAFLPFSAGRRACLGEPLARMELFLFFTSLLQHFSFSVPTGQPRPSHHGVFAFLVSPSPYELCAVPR
Sequence of Luciferin 4-monooxygenase (P08659 whole entry): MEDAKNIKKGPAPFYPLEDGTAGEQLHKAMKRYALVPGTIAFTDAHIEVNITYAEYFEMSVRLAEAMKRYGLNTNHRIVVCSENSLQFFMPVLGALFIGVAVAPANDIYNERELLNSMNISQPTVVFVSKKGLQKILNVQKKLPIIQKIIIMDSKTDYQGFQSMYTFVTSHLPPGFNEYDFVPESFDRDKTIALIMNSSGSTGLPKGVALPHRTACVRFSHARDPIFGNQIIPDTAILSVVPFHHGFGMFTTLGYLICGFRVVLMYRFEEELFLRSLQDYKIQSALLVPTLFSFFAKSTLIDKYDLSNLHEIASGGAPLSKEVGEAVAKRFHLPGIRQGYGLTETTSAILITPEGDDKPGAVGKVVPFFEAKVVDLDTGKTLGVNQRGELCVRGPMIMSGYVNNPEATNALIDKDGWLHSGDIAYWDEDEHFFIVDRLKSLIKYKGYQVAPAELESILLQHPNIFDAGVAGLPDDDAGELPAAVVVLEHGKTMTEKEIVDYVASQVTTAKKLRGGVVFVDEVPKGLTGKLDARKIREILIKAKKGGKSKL
Sequence of Cytochrome P450 2C9 (P11712 whole entry): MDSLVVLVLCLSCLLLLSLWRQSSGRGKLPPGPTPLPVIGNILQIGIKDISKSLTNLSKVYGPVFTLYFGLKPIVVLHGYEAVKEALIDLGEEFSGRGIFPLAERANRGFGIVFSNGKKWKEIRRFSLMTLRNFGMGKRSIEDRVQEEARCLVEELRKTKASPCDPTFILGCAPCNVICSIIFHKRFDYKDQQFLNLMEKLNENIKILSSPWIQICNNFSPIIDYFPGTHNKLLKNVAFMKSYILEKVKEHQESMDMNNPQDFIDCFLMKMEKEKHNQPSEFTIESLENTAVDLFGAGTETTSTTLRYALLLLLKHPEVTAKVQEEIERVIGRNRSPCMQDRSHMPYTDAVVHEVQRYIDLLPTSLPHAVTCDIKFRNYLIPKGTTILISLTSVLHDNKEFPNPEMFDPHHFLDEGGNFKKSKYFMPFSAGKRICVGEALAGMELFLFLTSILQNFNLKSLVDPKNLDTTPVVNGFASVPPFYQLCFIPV
Sequence of Cytochrome P450 3A4 (P08684 whole entry): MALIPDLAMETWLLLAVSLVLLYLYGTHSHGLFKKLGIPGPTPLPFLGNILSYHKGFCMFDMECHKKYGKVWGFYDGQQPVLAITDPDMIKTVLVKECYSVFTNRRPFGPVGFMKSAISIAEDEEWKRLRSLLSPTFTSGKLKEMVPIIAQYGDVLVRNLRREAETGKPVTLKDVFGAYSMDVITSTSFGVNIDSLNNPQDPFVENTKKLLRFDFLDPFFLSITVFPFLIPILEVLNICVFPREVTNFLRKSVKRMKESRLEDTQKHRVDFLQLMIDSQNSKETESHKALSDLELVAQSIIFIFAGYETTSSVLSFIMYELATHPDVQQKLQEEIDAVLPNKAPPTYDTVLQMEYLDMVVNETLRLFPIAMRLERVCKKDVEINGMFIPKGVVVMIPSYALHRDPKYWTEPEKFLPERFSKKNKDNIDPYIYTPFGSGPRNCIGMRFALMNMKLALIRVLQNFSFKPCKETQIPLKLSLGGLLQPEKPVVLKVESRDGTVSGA
Sequence of Cytochrome P450 2C19 (P33261 whole entry): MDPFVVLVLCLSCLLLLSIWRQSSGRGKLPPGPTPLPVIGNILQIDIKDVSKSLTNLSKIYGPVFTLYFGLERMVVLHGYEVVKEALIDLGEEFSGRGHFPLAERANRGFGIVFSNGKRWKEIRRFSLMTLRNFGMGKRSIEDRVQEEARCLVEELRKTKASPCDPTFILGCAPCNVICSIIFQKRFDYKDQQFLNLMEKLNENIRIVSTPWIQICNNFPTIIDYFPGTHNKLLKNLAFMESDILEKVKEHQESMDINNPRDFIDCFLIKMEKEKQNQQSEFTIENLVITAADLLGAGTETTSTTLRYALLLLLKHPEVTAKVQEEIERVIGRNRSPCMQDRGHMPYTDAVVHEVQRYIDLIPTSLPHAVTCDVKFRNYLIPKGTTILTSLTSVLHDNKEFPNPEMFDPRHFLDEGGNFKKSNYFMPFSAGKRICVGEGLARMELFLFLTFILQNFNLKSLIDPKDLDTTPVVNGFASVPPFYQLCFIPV

A word on the AC50: it is the concentration at which the activity in the assay is half-maximal. As to `C=CCN=C(NC#N)SCc1ccccc1`, the AC50 on Cytochrome P450 2D6 was 22.4 µM (inconclusive); at Cytochrome P450 2C9, 15.8 µM (inconclusive).
With `COc1ccccc1CCn1c(=O)c(-c2cccc(Cl)c2)nc2cncnc21`, the AC50 at Cytochrome P450 2D6 was 31.6 µM (inconclusive).
The same measure, in the same setting: under `C[C@@H]1CC[C@@H]2C(=O)N3[C@@H](CC[C@@H](C)[C@@H]3c3ccc(-c4ccco4)cc3)C(=O)N2[C@H]1c1ccc(-c2ccco2)cc1` stands 6.31 µM (inconclusive).
For the compound `CCN(CC)CCCN(Cc1cc2cc(OC)ccc2nc1O)C(=O)Nc1ccc(F)cc1`, the AC50 in test [1] was 12.4 µM (active).
For orientation: EC50 means the concentration needed to bring the measured effect to its halfway point. For `COCc1cc(C)nc(SCC[N+](C)(C)CC(=O)c2ccc(Br)cc2)c1C#N`, the EC50 in test [2] and in test [3] was > 112 µM (not active) in each case.
Take `Cc1ccc(NC(=O)Cc2nc(CCl)cs2)cc1`: the EC50 in test [2] and in test [3] was > 112 µM (not active) each time.
As to `N#Cc1cccc(-c2nc(NCc3cccs3)c3ccccc3n2)c1`, the AC50 at Cytochrome P450 2D6 is 5.01 µM (inconclusive).
As for `CCN(CC)CCC(=O)c1ccc(F)cc1`, the AC50 in test [1] is > 20 µM (inactive).
Still for that read-out and setting: next, `CSC1=NSC2=NC(=O)/C(=C/c3coc4ccccc4c3=O)C(=N)N12`: 16.5 µM (active).
As to `COCCn1c(=O)c(-c2ccccc2)nc2cnc(N(C)C)nc21`, the results for the AC50 on Cytochrome P450 2C19, on Cytochrome P450 2D6 and on Cytochrome P450 3A4 were 2 µM (inconclusive), 12.6 µM (inconclusive) and 39.8 µM (inconclusive), respectively.
For `COc1ccccc1NS(=O)(=O)c1ccc(NC(C)=O)cc1`, the EC50 in test [2] and in test [3] was > 112 µM (not active) each time.
`COc1ccc(/C=N/NC(=O)c2nonc2C)cc1`: the results for the EC50 in test [2] and in test [3] were 9.4 µM (active) and 2.84 µM (active), respectively.
As for `O=C(Nc1ccccc1C(=O)N/N=C/c1ccncc1)c1ccccc1`, the EC50 in test [2] was < 0.088 µM (active); in test [3], 3.06 µM (active).
The matching figures for `CC(C)N1C[C@@]23C=C[C@@H](O2)C(C(=O)OCc2ccccc2)[C@H]3C1=O` (some centres not stated): > 112 µM (not active) and > 112 µM (not active).
`CCOc1cc(/C=N/NC(=O)c2cccc([N+](=O)[O-])c2)ccc1OS(=O)(=O)c1ccccc1`: the AC50 is 1 µM (inconclusive) on Cytochrome P450 2D6, 7.08 µM (inconclusive) at Cytochrome P450 1A2, 8.91 µM (inconclusive) on Cytochrome P450 3A4 and 11.2 µM (inconclusive) on Cytochrome P450 2C9.
